Measurements as given in ChEMBL document CHEMBL2321873, “1-(4-Phenylpiperazin-1-yl)-2-(1H-pyrazol-1-yl)ethanones as novel CCR1 antagonists” (Bioorg Med Chem Lett, 2013).
Active and inactive are the calls of the source. The calls are words filed in the database; no cut-off is given here.

Assays:
[1] = Oral bioavailability in Sprague-Dawley rat at 5 mg/kg; assay type: ADME, organism-based; settings: in vivo
[2] = target: T1, C-C chemokine receptor type 3 (Homo sapiens) (UniProt P51677); assay: Antagonist activity at CCR3 (unknown origin) assessed as inhibition of calcium flux at 10 uM; assay type: functional
T1 sequence (whole entry): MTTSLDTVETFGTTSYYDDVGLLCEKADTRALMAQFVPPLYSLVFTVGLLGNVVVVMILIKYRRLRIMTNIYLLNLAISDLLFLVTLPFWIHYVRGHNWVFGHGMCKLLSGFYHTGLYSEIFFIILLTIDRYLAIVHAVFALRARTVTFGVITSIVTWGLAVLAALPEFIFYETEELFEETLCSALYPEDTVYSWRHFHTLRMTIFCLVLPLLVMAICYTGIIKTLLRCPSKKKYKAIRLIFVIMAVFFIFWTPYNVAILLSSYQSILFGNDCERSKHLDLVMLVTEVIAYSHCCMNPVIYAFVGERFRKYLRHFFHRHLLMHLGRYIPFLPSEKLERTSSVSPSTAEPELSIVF

With `COc1cc(N2CCN(C(=O)Cn3nc(C(F)(F)F)c(Cl)c3C)CC2)ccc1Cl` as the compound, how does the bioavailability [1] read?
The bioavailability was 52%.

And the inhibition [2]?
The inhibition was “inactive”.
